What all share (format): functional
In assay [1] the test system is 3T3-L1. Put plainly: Increase in triglyceride levels in mouse 3T3L1 cells at 100 uM.
Assay [2] relates to 3T3-L1. Put plainly: Increase in triglyceride levels in mouse 3T3L1 cells at 3 uM.
For assay [3], the system named is 3T3-L1. Description: Increase in triglyceride levels in mouse 3T3L1 cells at 1 uM.
Assay [4] relates to 3T3-L1. Put plainly: Increase in triglyceride levels in mouse 3T3L1 cells at 10 uM.
Assay [5] concerns 3T3-L1. Put plainly: Increase in triglyceride levels in mouse 3T3L1 cells at 30 uM.
Assay [6] relates to 3T3-L1. Description: Increase in 2-Deoxyglucose-uptake in mouse 3T3L1 cells at 10 uM by liquid scintillation counter.
In assay [7] the test system is Mus musculus. Put plainly: Decrease in blood free fatty acid levels in KKAy mouse at 200 mg/kg, po after 1 week.
The subject of assay [8] is 3T3-L1. Description: Increase in 2-Deoxyglucose-uptake in mouse 3T3L1 cells at 1 uM by liquid scintillation counter.
For assay [9], the system named is 3T3-L1. Description: Increase in adiponectin release in mouse 3T3L1 cells at 30 uM on day 4 by ELISA. On the technique in general: An ELISA detects its analyte on a solid surface through an enzyme-linked reagent.
Assay [10] concerns Mus musculus. Put plainly: Decrease in blood glucose levels in KKAy mouse at 100 mg/kg, po after 2 weeks.
Assay [11] deals with 3T3-L1. Description: Increase in adiponectin gene expression in mouse 3T3L1 cells at 100 uM after 2 days relative to beta-actin mRNA expression.
Assay [12] concerns 3T3-L1. Description: Increase in 2-Deoxyglucose-uptake in mouse 3T3L1 cells at 30 uM by liquid scintillation counter.
Assay [13] has as its system 3T3-L1. Put plainly: Increase in adiponectin release in mouse 3T3L1 cells at 100 uM on day 6 by ELISA.
Assay [14] relates to 3T3-L1. Description: Increase in PPARgamma2 gene expression in mouse 3T3L1 cells at 100 uM after 2 days relative to beta-actin mRNA expression.
Assay [15] deals with Mus musculus. Put plainly: Decrease in blood glucose levels in KKAy mouse at 100 mg/kg, po after 1 week.
Assay [16] concerns Mus musculus. Description: Effect on blood triglyceride levels in KKAy mouse at 200 mg/kg, po.
The test system of assay [17] is Mus musculus. Description: Decrease in blood free fatty acid levels in KKAy mouse at 200 mg/kg, po.
In assay [18] the test system is 3T3-L1. Put plainly: Increase in GLUT4 gene expression in mouse 3T3L1 cells at 100 uM after 2 days relative to beta-actin mRNA expression.
The subject of assay [19] is 3T3-L1. Put plainly: Increase in adiponectin release in mouse 3T3L1 cells at 3 uM on day 4 by ELISA.
Assay [20] relates to Mus musculus. Put plainly: Decrease in blood free fatty acid levels in KKAy mouse at 100 mg/kg, po after 2 weeks.
The subject of assay [21] is 3T3-L1. Put plainly: Decrease in IL6 gene expression in mouse 3T3L1 cells at 100 uM after 2 days relative to beta-actin mRNA expression.
In assay [22] the test system is 3T3-L1. Put plainly: Increase in adiponectin release in mouse 3T3L1 cells at 30 uM on day 6 by ELISA.
For assay [23], the system named is 3T3-L1. Put plainly: Increase in adiponectin gene expression in mouse 3T3L1 cells at 30 uM after 2 days relative to beta-actin mRNA expression.
The test system of assay [24] is Mus musculus. Description: Decrease in blood free fatty acid levels in KKAy mouse at 200 mg/kg, po after 2 weeks.
The subject of assay [25] is 3T3-L1. Description: Increase in GLUT4 gene expression in mouse 3T3L1 cells at 30 uM after 2 days relative to beta-actin mRNA expression.
Assay [26] concerns 3T3-L1. Description: Increase in adiponectin release in mouse 3T3L1 cells at 100 uM on day 4 by ELISA.
For assay [27], the system named is Mus musculus. Put plainly: Decrease in blood free fatty acid levels in KKAy mouse at 100 mg/kg, po after 1 week.
The test system of assay [28] is Mus musculus. Description: Effect on blood triglyceride levels in KKAy mouse at 100 mg/kg, po after 2 weeks.
Assay [29] has as its system Mus musculus. Description: Decrease in blood glucose levels in KKAy mouse at 200 mg/kg, po after 2 weeks.
In assay [30] the test system is Mus musculus. Description: Effect on blood triglyceride levels in KKAy mouse at 100 mg/kg, po after 1 week.
The subject of assay [31] is Mus musculus. Put plainly: Effect on blood triglyceride levels in KKAy mouse at 200 mg/kg, po after 1 week.
The test system of assay [32] is 3T3-L1. Description: Decrease in IL6 gene expression in mouse 3T3L1 cells at 30 uM after 2 days relative to beta-actin mRNA expression.
Assay [33] concerns 3T3-L1. Put plainly: Increase in 2-Deoxyglucose-uptake in mouse 3T3L1 cells at 100 uM by liquid scintillation counter.
Assay [34] concerns 3T3-L1. Description: Increase in 2-Deoxyglucose-uptake in mouse 3T3L1 cells at 3 uM by liquid scintillation counter.
Assay [35] has as its system 3T3-L1. Put plainly: Increase in adiponectin release in mouse 3T3L1 cells at 3 uM on day 6 by ELISA.
Assay [36] has as its system 3T3-L1. Put plainly: Increase in adiponectin release in mouse 3T3L1 cells at 10 uM on day 6 by ELISA.
In assay [37] the test system is Mus musculus. Description: Effect on blood triglyceride levels in KKAy mouse at 100 mg/kg, po.
Assay [38] deals with 3T3-L1. Put plainly: Increase in PPARgamma2 gene expression in mouse 3T3L1 cells at 30 uM after 2 days relative to beta-actin mRNA expression.
Assay [39] deals with 3T3-L1. Put plainly: Increase in adiponectin release in mouse 3T3L1 cells at 10 uM on day 4 by ELISA.
For assay [40], the system named is Mus musculus. Put plainly: Decrease in blood free fatty acid levels in KKAy mouse at 100 mg/kg, po.
The subject of assay [41] is Mus musculus. Put plainly: Effect on blood triglyceride levels in KKAy mouse at 200 mg/kg, po after 2 weeks.
Assay [42] deals with Mus musculus. Put plainly: Decrease in blood glucose levels in KKAy mouse at 200 mg/kg, po.
The subject of assay [43] is Mus musculus. Description: Decrease in blood glucose levels in KKAy mouse at 100 mg/kg, po.
The test system of assay [44] is Mus musculus. Put plainly: Decrease in blood glucose levels in KKAy mouse at 200 mg/kg, po after 1 week.
For assay [45], the system named is 3T3-L1. Description: Increase in GLUT4 gene expression in mouse 3T3L1 cells at 3 uM after 2 days relative to beta-actin mRNA expression.
The test system of assay [46] is 3T3-L1. Description: Decrease in IL6 gene expression in mouse 3T3L1 cells at 3 uM after 2 days relative to beta-actin mRNA expression.
The subject of assay [47] is 3T3-L1. Description: Increase in adiponectin gene expression in mouse 3T3L1 cells at 3 uM after 2 days relative to beta-actin mRNA expression.
In assay [48] the test system is 3T3-L1. Put plainly: Increase in PPARgamma2 gene expression in mouse 3T3L1 cells at 3 uM after 2 days relative to beta-actin mRNA expression.

Regarding `O=C(O)c1c(O)cccc1/C=C/c1ccc(O)cc1` [HYDRANGEAIC ACID], the Activity was 41.2% in assay [1]; 11.7% in assay [2]; 2.2% in [3]; 11.1% in [4]; 27.3% in [5].
For the molecule `O=C1OC(c2ccc(O)cc2)Cc2cccc(O)c21` (configuration not stated) [HYDRANGENOL], the Activity came out at 221% in [6]; 0.81 mEq/L in [7]; 117% in assay [8]; 27.4 ng/mL in assay [9]; 422.7 mg/dL in [10]; 41.3% in [1]. The Activity came out at 245% in assay [12]; 99.8 ng/mL in [13]; 389.1 mg/dL in assay [15]; 362.8 mg/dL in assay [16]; 1.01 mEq/L in assay [17]; 22.3 ng/mL in assay [19]. In addition, the Activity came out at 1.07 mEq/L in [20]; 94 ng/mL in [22]; 0.89 mEq/L in assay [24]; 33 ng/mL in assay [26]; 0.91 mEq/L in assay [27]; 483.9 mg/dL in [28]. The Activity turned out to be 411.2 mg/dL in assay [29]; 429.3 mg/dL in [30]; 413.8 mg/dL in assay [31]; 19.2% in assay [2]; 302% in assay [33]; 160% in assay [34]. Further, the Activity in assay [35] came to 68.2 ng/mL; in assay [36], 84.2 ng/mL; in assay [37] it was 332.1 mg/dL; in assay [3], 14.4%; in [39] it was 22.8 ng/mL; in assay [40], 0.96 mEq/L. Besides, the Activity in assay [4] came to 17.7%; in [41], 428.8 mg/dL; in assay [42] it was 336 mg/dL; in assay [43], 336.3 mg/dL; in assay [5] it was 29.9%; in assay [44], 397.5 mg/dL. Moreover, the Ratio in assay [11] is on record as 2.46; in assay [14], 2.65; in [18] it was 1.38; in assay [21], 0.51; in [23] it was 1.98; in [25], 1.12. Further, the Ratio in assay [32] was found to be 0.78; in [38], 1.92.
As to `O=C1OC(c2ccc(O)cc2)Cc2cc(O)cc(O)c21` (configuration not stated) [THUNBERGINOL C], the Activity in assay [1] was 1.4%; in assay [2], -7.5%; in assay [3], -9.3%; in [4], -11.1%; in assay [5] it was -17.6%.
`COc1ccc([C@H]2Cc3cc(O)cc(O)c3C(=O)O2)cc1O` [THUNBERGINOL E]: the Activity is reported as -4% in assay [1]; -7.5% in assay [2]; -6.3% in [3]; -8% in assay [4]; 3.4% in [5].
In the case of `O=C1OC(c2ccc(O)cc2)Cc2cccc(O[C@@H]3O[C@H](CO)[C@@H](O)[C@H](O)[C@H]3O)c21` (some centres not stated), the Activity worked out at 9.2% in assay [1]; 11.2% in [2]; 11.1% in [3]; 1.2% in assay [4]; 10.5% in assay [5].
Consider `COc1ccc([C@H]2Cc3cccc(O)c3C(=O)O2)cc1O` [PHYLLODULCIN], for which the Activity in assay [1] is 20.3%; in assay [2] it was 12.8%; in assay [3], -0.7%; in assay [4] it was 9.8%; in assay [5], 23.8%.
On to `O=C1O/C(=C\c2ccc(O)c(O)c2)c2cccc(O)c21` [THUNBERGINOL F], for which the Activity in [1] is given as -54.8%; in assay [2] it was 6.2%; in assay [3], 2.1%; in [4], 6.2%; in assay [5] it was 8.3%.
On to `O=c1oc(-c2ccc(O)c(O)c2)cc2cc(O)cc(O)c12` [THUNBERGINOL B], for which the Activity was 54.1% in assay [1]; -8% in assay [2]; -3.8% in assay [3]; -7.8% in [4]; 7.2% in [5].
The matching figures for `O=c1oc(-c2ccc(O)c(O)c2)cc2cccc(O)c12` [THUNBERGINOL A]: -27.6%, 17.5%, 8%, 19.6% and 15.7%.
Consider `O=C1OC(c2ccc(O)c(O)c2)Cc2cc(O)cc(O)c21` (configuration not stated) [THUNBERGINOL D], for which the Activity is on record as 12.5% in assay [1]; 2.8% in assay [2]; -1.2% in assay [3]; -0.8% in assay [4]; 4% in assay [5].
As to `Cc1c(C)c2c(c(C)c1O)CCC(C)(COc1ccc(CC3SC(=O)NC3=O)cc1)O2` (configuration not stated) [TROGLITAZONE], the Ratio in assay [45] is 2.92; in assay [46] it was 0.89; in assay [47] it was 3.01; in assay [48], 1.09. Also, the Activity in assay [9] amounted to 43 ng/mL; in assay [15] it was 293.3 mg/dL; in assay [20], 0.8 mEq/L; in assay [22], 101.2 ng/mL; in [27] it was 0.62 mEq/L; in [28] it was 464.6 mg/dL. For the same molecule, the Activity was found to be 303.4 mg/dL in assay [30]; 40.5% in assay [2]; 388% in assay [34]; 329.4 mg/dL in assay [37]; 33.8% in assay [3]; 0.95 mEq/L in [40]. The figures for the Activity in assay [4] and in assay [43] were 39.6% and 307.5 mg/dL, respectively.
Consider `COc1ccc([C@H]2Cc3cccc(O[C@@H]4O[C@H](CO)[C@@H](O)[C@H](O)[C@H]4O)c3C(=O)O2)cc1O`, for which the Activity in [1] is recorded as 6.6%; in [2], 8.7%; in [3], 3.6%; in [4] it was -1.5%; in assay [5], -3%.

The values above are taken from ChEMBL document CHEMBL1140691, “New type of anti-diabetic compounds from the processed leaves of Hydrangea macrophylla var. thunbergii (Hydrangeae Dulcis Folium)” (2007).
